# Experimental data from US9206411B2, “Staphylococcal Phage2638A endolysin amidase domain is lytic for Staphylococcus aureus” (priority 2012, dated 2015).
# B1: 2638A 180-486: engineered amidase-SH3b construct initiated at codon 180, SEQ ID NO:6 (protein)
# chain: MKHIYSNHIKGNKITAPKPSIQGVVIHNDYGSMTPSQYLPWLYARENNGTHVNGWASVYANRNEVLWYHPTDYVEWHCGNQWANANLIGFEVCESYPGRISDKLFLENEEATLKVAADVMKSYGLPVNRNTVRLHNEFFGTSCPHRSWDLHVGKGEPYTTTNINKMKDYFIKRIKHYYDGGKLEVSKAATIKQSDVKQEVKKQEAKQIVKATDWKQNKDGIWYKAEHASFTVTAPEGIITRYKGPWTGHPQAGVLQKGQTIKYDEVQKFDGHVWVSWETFEGETVYMPVRTWDAKTGKVGKLWGEIKLEHHHHHH
# modifications: Phage 2638a
# B2: 2638A 1-180Mut-486: repaired full length construct, codon 180 TTG silently mutated to CTC, SEQ ID NO:4 (protein)
# chain: MLTAIDYLTKKGWKISSDPRTYDGYPKNYGYRNYHENGINYDEFCGGYHRAFDVYSNETNDVPAVTSGTVIEANDYGNFGGTFVIRDANDNDWIYGHLQRGSMRFVVGDKVNQGDIIGLQGNSNYYDNPMSVHLHLQLRPKDAKKDEKSQVCSGLAMEKYDITNLNAKQDKSKNGSVKELKHIYSNHIKGNKITAPKPSIQGVVIHNDYGSMTPSQYLPWLYARENNGTHVNGWASVYANRNEVLWYHPTDYVEWHCGNQWANANLIGFEVCESYPGRISDKLFLENEEATLKVAADVMKSYGLPVNRNTVRLHNEFFGTSCPHRSWDLHVGKGEPYTTTNINKMKDYFIKRIKHYYDGGKLEVSKAATIKQSDVKQEVKKQEAKQIVKATDWKQNKDGIWYKAEHASFTVTAPEGIITRYKGPWTGHPQAGVLQKGQTIKYDEVQKFDGHVWVSWETFEGETVYMPVRTWDAKTGKVGKLWGEIKLEHHHHHH
# modifications: Mutated Phage 2638a
# B3: 2638A 139-486: truncated endolysin with full length amidase and SH3b domains, SEQ ID NO:5 (protein)
# chain: MRPKDAKKDEKSQVCSGLAMEKYDITNLNAKQDKSKNGSVKELKHIYSNHIKGNKITAPKPSIQGVVIHNDYGSMTPSQYLPWLYARENNGTHVNGWASVYANRNEVLWYHPTDYVEWHCGNQWANANLIGFEVCESYPGRISDKLFLENEEATLKVAADVMKSYGLPVNRNTVRLHNEFFGTSCPHRSWDLHVGKGEPYTTTNINKMKDYFIKRIKHYYDGGKLEVSKAATIKQSDVKQEVKKQEAKQIVKATDWKQNKDGIWYKAEHASFTVTAPEGIITRYKGPWTGHPQAGVLQKGQTIKYDEVQKFDGHVWVSWETFEGETVYMPVRTWDAKTGKVGKLWGEIKLEHHHHHH
# modifications: Phage 2638a
# Tests used:
# [1] = system: MRSA strain NRS382; assay: Control of systemic MRSA infection in a murine model; type: in vivo, Staphylococcus aureus; conditions: for Mean NRS382 Titer in the Blood: Recovered 48 hr post infection from surviving mice, same doses
# [2] = system: S. aureus strain NRS119 (SA LinR #12; linezolid resistant); assay: Plate lysis assay (FIG. 3); type: cell-based; conditions: lawn on TSA plates, observed over days
# Procedure: Purified proteins for each construct were diluted in sterile nickel column elution buffer, and 6 μL of lysostaphin (11 μg) or the constructs (0.2 nmoles or ˜11 μg for the repaired construct 2638A 1-180Mut-486) was spotted onto a freshly spread lawn of S. aureus strain NRS119 (SA LinR #12; linezolid resistant) growing cells that had air dried for 30 min on tryptic soy agar (TSA) plates. L=[…] Lysostaphin (Sigma); Spot 1=11 μg; all other constructs are 0.2 nmoles (˜11 μg for the repaired construct 2638A 1-180Mut-486) […]. The spotted plates were air dried for 10 min in a laminar flow hood and incubated overnight in a 37° C. environment. Scoring of the cleared spots occurred within 20 h of plating the cells.
# The Plate Lysis assay results (FIG. 3) agree with the turbidity reduction assay. Each of the M23 peptidase dependent or SH3b-truncating constructs showing weak activity on S. aureus strain Newman strain. In addition to the Plate Lysis results in FIG. 3, we have also examined numerous strains with reduced but real lytic activity (Table 1). However, the plate lysis results with the 2638A endolysin constructs are extremely novel in appearance. Plate lysis results are routinely visualized as a discrete cleared spot on a lawn of bacteria after a single overnight of culture. […]
# [3] = system: S. aureus strain Newman; assay: Turbidity reduction assay; type: cell-based; conditions: 0.5 μM protein; live S. aureus Newman; Mn2+, Mg2+, Ca2+ 1 mM; FIG. 3
# Procedure: The turbidity assay measures the drop in optical density (OD) resulting from lysis of the target bacteria with the phage endolysin-derived protein. Mid log phase (OD600 nm of 0.4-0.6) target cells were grown in Brain Heart Infusion (Becton Dickenson, Franklin Lakes, N.J.) and concentrated in lysing buffer A (LBA; 50 mM ammonium acetate, 10 mM CaCl2, 1 mM DTT at pH 6.2) to an OD600 nm of ˜2.0. The turbidity reduction assays were performed with identical molar amounts of proteins and S. aureus strain Newman with the addition of the bivalent metal cations Mn^2+, Mg^2+, and Ca^2+ at a concentration of 1 mM. The turbidity reduction assay contained 0.5 μM protein (5.7 μg of full length repaired construct: 2638A 1-180Mut-486 in 200 μl assay) unless otherwise noted. Lane 1, 2638A 1-486 (5.7 μg total protein in 200 μl assay); Lane 2, 2638A 1-196; Lane 3, 2638A 1-220; Lane 4, 2638A 1-244; Lane 5, 2638A 1-220::355-486; Lane 6, 2638A 1-411; Lane 7, 2638A 139-411; Lane 8, 2638A 139-486; Lane 9, 2638A 180-486; Lane 10, 2638A 1-180Mut-486. Mixing reactions between the repaired full length construct 2638A 1-180Mut-486 (R) and the engineered amidase-SH3b construct 2638A 180-486 (A) were performed in the following ratios Lane 11, R:A::1:1, 1 μM; Lane 12, R:A::1:1, 0.5 μM; Lane 13, R:A::1:3, 0.5 μM; and Lane 14, R:A::3:1, 0.5 μM. Optical Density measurements are taken at regular intervals. If the lysin can digest the cell wall, lysis will occur with a subsequent reduction in OD. Changes in the OD600 nm in the control sample (cells alone) were subtracted from samples containing both cells and lysin, before calculating the specific activity. Specific Activity=ΔOD600 nm/μM/min.
# [4] = system: S. aureus strain Newman; assay: Zymogram analysis; type: cell-based; conditions: 5 μg loaded; SDS treated S. aureus Newman embedded in gel; FIG. 1C
# From the text: Zymograms are not usually interpreted quantitatively (especially since these were loaded with μg equivalents and not molar equivalents of enzyme) but rather are used to indicate that the minor contaminating bands in the preparations are not contributing to the activity of the preparation. There was virtually no activity from any of the minor (non-shadow) bands in the zymogram assay after extended periods. However, the presence of nearly equal amounts of the active shadow band (from stained SDS gel) in many preparations negated the ability to quantify the activity from either the isolated amidase domain (2638A 139-411; 2638A 139-486) or the full length construct.
# [5] = 0 hours, Balb/c mice, I.P. 4×10^7 CFU, treated 30 min post infection: 2638A 200 μg/mouse I.P., Vancomycin 375 μg/mouse s.c., Oxacillin 1250 μg/mouse s.c.
Molecule,"% Survival [1, 5]","% Survival ([1]; 4 hours, same model and doses)","% Survival ([1]; 8 hours, same model and doses)","% Survival ([1]; 12 hours, same model and doses)","% Survival ([1]; 16 hours, same model and doses)","% Survival ([1]; 20 hours, same model and doses)","% Survival ([1]; 24 hours, same model and doses)","% Survival ([1]; 28 hours, same model and doses)","% Survival ([1]; 32 hours, same model and doses)","% Survival ([1]; 36 hours, same model and doses)","% Survival ([1]; 40 hours, same model and doses)","% Survival ([1]; 44 hours, same model and doses)",Mean NRS382 Titer in the Blood [1],activity in the turbidity reduction assay [3],other results
CN[C@H](CC(C)C)C(=O)N[C@H]1C(=O)N[C@@H](CC(N)=O)C(=O)N[C@H]2C(=O)N[C@H]3C(=O)N[C@H](C(=O)N[C@H](C(=O)O)c4cc(O)cc(O)c4-c4cc3ccc4O)[C@H](O)c3ccc(c(Cl)c3)Oc3cc2cc(c3O[C@@H]2O[C@H](CO)[C@@H](O)[C@H](O)[C@H]2O[C@H]2C[C@](C)(N)[C@H](O)[C@H](C)O2)Oc2ccc(cc2Cl)[C@H]1O [Vancomycin],100%,100%,100%,100%,100%,100%,100%,100%,100%,100%,100%,100%,1.8 ± 3.3 × 10^1 CFU/ml,–,"% Survival ([1]; 48 hours (end of the experiment), same model and doses): 100%; septicemia score at the end of the experiment ([1]; 48 hours, score 0-5 per Table 4): 0"
Cc1onc(-c2ccccc2)c1C(=O)N[C@@H]1C(=O)N2[C@@H]1SC(C)(C)[C@@H]2C(=O)O [Oxacillin],100%,100%,100%,100%,100%,40%,40%,30%,30%,30%,30%,30%,0.9 ± 1.6 × 10^3 CFU/ml,–,"survival rate ([1]; after 16 to 20 hours, same model and doses): less than 40%; average septicemia score ([1]; at 20 hours post infection, maintained until the end, score 0-5 per Table 4): approximately 4"
"Lysostaphin: Lysostaphin (Sigma), peptidoglycan hydrolase control in plate lysis [reference compound]",–,–,–,–,–,–,–,–,–,–,–,–,–,–,appearance and persistence of the cleared zone in plate lysis [2]: cleared zone remains that way for days or weeks
B1,–,–,–,–,–,–,–,–,–,–,–,–,–,appreciable activity,–
B2,–,–,–,–,–,–,–,–,–,–,–,–,–,appreciable activity,–
B3,–,–,–,–,–,–,–,–,–,–,–,–,–,appreciable activity,staphylolytic activity (zones of clearing) in the zymogram [4]: active
